Values of other authors as cited in patent US20100210573A1, “COMPOUND AND COMPOSITIONS FOR TREATMENT OF DISEASE” (Citrox Limited, priority 2008, published 2010).

Experiments:
[1] = test system: Leishmania donovani promastigotes and amastigotes; conditions: in vitro; Mittra et al., Molecular Medicine 6, 2000
[2] = test system: Trypanosoma brucei gambiense; conditions: cell cultures; Antimicrobial Agents and Chemother. 48, 2004

O=c1cc(-c2ccc(O)c(O)c2)oc2cc(O)cc(O)c12 [Luteolin]
growth of Leishmania donovani promastigotes and amastigotes [1]: inhibit the growth

O=c1c(O)c(-c2ccc(O)c(O)c2)oc2cc(O)cc(O)c12 [Quercetin]
growth of Leishmania donovani promastigotes and amastigotes [1]: inhibit the growth | apoptosis of Trypanosoma brucei gambiense [2]: induce apoptosis
